One assay has as its target HiBiT tagged CK1α (Homo sapiens, UniProt P48729+Q96SW2). In words: CK1α degradation assay (HiBiT assay). It is filed as cell-based. The conditions noted are these: 20 hours; for Dmax: HT-1080, HT-1080 cells; for Dmax / HiBiT CK1α: Dmax: maximum CK1α degradation; for DC50 / HiBiT CK1α: Dmax: HT-1080 cells; for DC50: concentration at 50% CK1α degradation. How it is done:
(§1) CK1α and GSPT1 Degradation Assay (HiBiT Assay) The following is an example of an assay that can be used to determine the dose-dependent CK1α and GSPT1 degradation activities of test compounds in a human cell line such as HT-1080 ([…]). HT-1080 cells stably overexpressing wild-type CRBN, GSPT1A(1-138)/G575N mutant and HiBiT tagged CK1α or GSPT1 were seeded into 384-well plates (Cat #3764, Corning) pre-spotted with DMSO or test compounds. Increasing concentrations of test compounds (ranging from 3.162×10^-4 μM to 10 μM at a 3.16-fold increment) or DMSO were dispensed into an empty 384-well plate using an Echo Acoustic Liquid Handler (Beckman Coulter). About 10,000 cells in complete DMEM cell culture media were seeded per well. […] Luminescence was then measured with an EnVision plate reader (PerkinElmer) or a PHERAstar plate reader (BMG Labtech). All CK1α or GSPT1 degradation curves were processed using Collaborative Drug Discovery Vault softwares (Burlingame, CA., www.collaborativedrug.com). CK1α or GSPT1 levels in compound-treated wells were normalized to that of DMSO control and expressed as Percent of Control (PoC, y). […]
(With HiBiT, luminescence reflects the tagged protein that the partner subunit can reach.)

In another assay the target is HiBiT tagged GSPT1 (Homo sapiens, UniProt P15170+Q96SW2). In words: GSPT1 degradation assay (HiBiT assay). It is filed as cell-based. To be noted: for Dmax: HT-1080, HT-1080 cells; for Dmax / HiBiT GSPT1: Dmax: 20 hours, maximum GSPT1 degradation. How it is done: as §1
Chain of HiBiT tagged GSPT1 (P15170 whole entry): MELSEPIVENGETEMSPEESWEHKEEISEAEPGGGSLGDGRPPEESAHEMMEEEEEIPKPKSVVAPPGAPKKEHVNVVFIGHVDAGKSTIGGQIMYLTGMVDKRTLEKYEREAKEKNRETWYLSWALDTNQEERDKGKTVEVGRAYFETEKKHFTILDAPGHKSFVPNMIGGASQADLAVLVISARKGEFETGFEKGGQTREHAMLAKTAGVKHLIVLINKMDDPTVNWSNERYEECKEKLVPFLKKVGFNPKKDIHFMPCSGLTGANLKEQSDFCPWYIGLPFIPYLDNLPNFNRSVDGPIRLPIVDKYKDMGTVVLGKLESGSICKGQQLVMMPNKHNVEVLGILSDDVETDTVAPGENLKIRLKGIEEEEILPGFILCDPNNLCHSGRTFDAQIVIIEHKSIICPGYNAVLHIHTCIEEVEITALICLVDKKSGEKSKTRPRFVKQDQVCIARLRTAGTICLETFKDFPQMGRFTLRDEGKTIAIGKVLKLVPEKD
Chain of HiBiT tagged GSPT1 (Q96SW2 whole entry): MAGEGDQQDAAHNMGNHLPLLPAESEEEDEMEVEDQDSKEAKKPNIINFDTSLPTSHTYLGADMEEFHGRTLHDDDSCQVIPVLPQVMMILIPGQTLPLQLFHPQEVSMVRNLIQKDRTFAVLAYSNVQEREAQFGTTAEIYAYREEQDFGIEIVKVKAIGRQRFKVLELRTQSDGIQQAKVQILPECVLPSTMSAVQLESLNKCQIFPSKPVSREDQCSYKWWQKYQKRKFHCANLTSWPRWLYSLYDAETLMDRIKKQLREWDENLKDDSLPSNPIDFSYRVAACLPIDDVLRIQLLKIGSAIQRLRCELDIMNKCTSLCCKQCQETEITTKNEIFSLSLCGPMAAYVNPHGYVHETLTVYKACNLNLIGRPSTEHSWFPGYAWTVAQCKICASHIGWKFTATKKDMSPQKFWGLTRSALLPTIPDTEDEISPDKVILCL
Chain of HiBiT tagged GSPT1 (Q16531 whole entry partner): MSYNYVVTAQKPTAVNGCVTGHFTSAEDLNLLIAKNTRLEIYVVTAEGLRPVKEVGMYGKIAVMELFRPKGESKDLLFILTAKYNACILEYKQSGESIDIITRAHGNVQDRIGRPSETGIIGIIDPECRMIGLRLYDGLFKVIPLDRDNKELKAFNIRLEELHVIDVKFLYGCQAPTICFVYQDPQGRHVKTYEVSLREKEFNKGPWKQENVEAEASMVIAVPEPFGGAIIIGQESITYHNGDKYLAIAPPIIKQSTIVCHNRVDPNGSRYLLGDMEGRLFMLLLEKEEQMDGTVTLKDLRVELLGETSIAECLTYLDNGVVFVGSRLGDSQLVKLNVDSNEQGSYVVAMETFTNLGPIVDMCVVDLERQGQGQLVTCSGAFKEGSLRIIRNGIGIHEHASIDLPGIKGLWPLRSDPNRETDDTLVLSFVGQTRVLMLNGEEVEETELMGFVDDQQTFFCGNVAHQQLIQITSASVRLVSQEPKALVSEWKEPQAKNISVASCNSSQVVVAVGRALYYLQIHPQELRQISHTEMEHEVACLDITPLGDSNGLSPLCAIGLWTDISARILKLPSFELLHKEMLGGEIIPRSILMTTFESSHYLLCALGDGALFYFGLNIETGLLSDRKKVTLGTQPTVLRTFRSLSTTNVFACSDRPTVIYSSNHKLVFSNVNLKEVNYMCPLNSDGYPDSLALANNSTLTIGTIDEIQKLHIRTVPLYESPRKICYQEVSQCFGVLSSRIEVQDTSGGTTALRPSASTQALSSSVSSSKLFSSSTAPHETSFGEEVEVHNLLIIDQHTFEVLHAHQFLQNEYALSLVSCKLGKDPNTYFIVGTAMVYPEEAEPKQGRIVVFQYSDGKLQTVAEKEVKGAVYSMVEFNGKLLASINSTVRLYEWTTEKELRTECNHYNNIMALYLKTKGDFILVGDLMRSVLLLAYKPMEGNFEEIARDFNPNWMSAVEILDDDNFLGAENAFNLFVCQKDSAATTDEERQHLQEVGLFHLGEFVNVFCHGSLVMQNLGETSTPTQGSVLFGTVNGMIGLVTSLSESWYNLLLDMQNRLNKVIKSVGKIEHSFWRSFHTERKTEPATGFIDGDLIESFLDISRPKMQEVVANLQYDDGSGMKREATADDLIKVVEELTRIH

The structures appear in SMILES notation.

These results are taken from US12673936B2, “Isoindolinone compounds, and uses thereof” (HANGZHOU GLUBIO PHARMACEUTICAL CO., LTD., priority 2021, dated 2026).

A word on the Dmax: it is the greatest extent of degradation seen. Broadly, the DC50 is the concentration at which degradation of the target reaches its halfway point.

Chain of HiBiT tagged CK1α (P48729 whole entry): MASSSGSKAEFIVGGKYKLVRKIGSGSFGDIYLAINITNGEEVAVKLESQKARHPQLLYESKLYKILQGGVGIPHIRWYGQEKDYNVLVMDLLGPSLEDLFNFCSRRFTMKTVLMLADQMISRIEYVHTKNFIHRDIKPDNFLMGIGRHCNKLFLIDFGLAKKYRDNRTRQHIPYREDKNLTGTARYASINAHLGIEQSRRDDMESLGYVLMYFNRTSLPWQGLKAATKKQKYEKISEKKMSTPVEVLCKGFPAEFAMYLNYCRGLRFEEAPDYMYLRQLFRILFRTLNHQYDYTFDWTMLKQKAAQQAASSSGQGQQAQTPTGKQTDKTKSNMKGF
Chain of HiBiT tagged CK1α (Q96SW2 whole entry): as the sequence (Q96SW2 whole entry) above
Chain of HiBiT tagged CK1α (Q16531 whole entry partner): as the sequence (Q16531 whole entry partner) above

For `O=C1CCC(N2Cc3cc(C(=O)N[C@@H](c4cccc(Cl)c4)C4CCC4)ccc3C2=O)C(=O)N1` (stereo in doubt) [Compound 68, N-((3-chlorophenyl)(cyclobutyl)methyl)-2-(2,6-dioxopiperidin-3-yl)-1-oxoisoindoline-5-carboxamide], on HiBiT tagged CK1α, the Dmax amounted to 55.4% and it took 789 nM to reach half-maximal degradation (DC50). At HiBiT tagged GSPT1, this compound had a Dmax of 48.3%.

As for `O=C1CCC(N2Cc3cc(C(=O)N[C@H](c4c(F)cccc4Cl)C4CCC4)ccc3C2=O)C(=O)N1` (stereo in doubt) [Compound 69, N-((*S)-(2-chloro-6-fluorophenyl)(cyclobutyl)methyl)-2-(2,6-dioxopiperidin-3-yl)-1-oxoisoindoline-5-carboxamide], at HiBiT tagged CK1α, the half-maximal degradation concentration (DC50) worked out at 62.7 nM and the “HiBiT CK1α: Dmax” value is on record as 74%. At HiBiT tagged GSPT1 (HT-1080 cells), the “HiBiT GSPT1: Dmax” value is listed as 26%.

On to `O=C1CCC(N2Cc3cc(C(=O)N[C@@H](c4c(F)cccc4Cl)C4CCC4)ccc3C2=O)C(=O)N1` (stereo in doubt) [Compound 70, N-((*R)-(2-chloro-6-fluorophenyl)(cyclobutyl)methyl)-2-(2,6-dioxopiperidin-3-yl)-1-oxoisoindoline-5-carboxamide], for which, at HiBiT tagged CK1α, it took 50.3 nM to reach half-maximal degradation (DC50) and the “HiBiT CK1α: Dmax” value came to 73.9%. Also, at HiBiT tagged GSPT1 (HT-1080 cells), the “HiBiT GSPT1: Dmax” value turned out to be 58%.

With `O=C1CCC(N2Cc3cc(C(=O)N[C@H](c4ncc(F)cc4Cl)C4CC4)ccc3C2=O)C(=O)N1` (stereo in doubt) [Compound 71, N-((*S)-(3-chloro-5-fluoropyridin-2-yl)(cyclopropyl)methyl)-2-(2,6-dioxopiperidin-3-yl)-1-oxoisoindoline-5-carboxamide], the Dmax came to 61.7% on HiBiT tagged CK1α and 19.1% on HiBiT tagged GSPT1. This compound also gave a DC50 at HiBiT tagged CK1α of 455 nM.

At HiBiT tagged CK1α, `O=C1CCC(N2Cc3cc(C(=O)N[C@@H](c4ccc(F)cc4Cl)C4CCC4)ccc3C2=O)C(=O)N1` (stereo in doubt) [Compound 72, N-((*R)-(2-chloro-4-fluorophenyl)(cyclobutyl)methyl)-2-(2,6-dioxopiperidin-3-yl)-1-oxoisoindoline-5-carboxamide] gave a Dmax of 65.5% and a DC50 of 132 nM. The compound further registered a Dmax at HiBiT tagged GSPT1 of 45.2%.

On to `O=C1CCC(N2Cc3cc(C(=O)N[C@H](c4ccc(F)cc4Cl)C4CCC4)ccc3C2=O)C(=O)N1` (stereo in doubt) [Compound 73, N-((*S)-(2-chloro-4-fluorophenyl)(cyclobutyl)methyl)-2-(2,6-dioxopiperidin-3-yl)-1-oxoisoindoline-5-carboxamide], for which the Dmax at HiBiT tagged CK1α was 71.4%; on HiBiT tagged GSPT1, 30.4%. This compound also gave a DC50 at HiBiT tagged CK1α of 73.5 nM.

`O=C1CCC(N2Cc3cc(C(=O)N[C@@H](c4ccc(F)cc4Cl)C4CC4)ccc3C2=O)C(=O)N1` (stereo in doubt) [Compound 74, N-((*R)-(2-chloro-4-fluorophenyl)(cyclopropyl)methyl)-2-(2,6-dioxopiperidin-3-yl)-1-oxoisoindoline-5-carboxamide]: on HiBiT tagged CK1α, the greatest degradation seen (Dmax) is 59.2% and the 50% degradation concentration (DC50) was 233 nM. The compound further yielded a Dmax at HiBiT tagged GSPT1 of 62.3%.

`O=C1CCC(N2Cc3cc(C(=O)N[C@@H](c4ccc(F)cc4)C4CCC4)ccc3C2=O)C(=O)N1` (stereo in doubt) [Compound 75, N-((*R)-cyclobutyl(4-fluorophenyl)methyl)-2-(2,6-dioxopiperidin-3-yl)-1-oxoisoindoline-5-carboxamide]: at HiBiT tagged CK1α, the Dmax was 50.4% and the DC50 is 3880 nM. This compound also displayed a Dmax on HiBiT tagged GSPT1 of 24.1%.

Regarding `O=C1CCC(N2Cc3cc(C(=O)N[C@@H](c4ccc(Cl)cn4)C4CCC4)ccc3C2=O)C(=O)N1` (stereo in doubt) [Compound 77, N—((*R)-(5-chloropyridin-2-yl)(cyclobutyl)methyl)-2-(2,6-dioxopiperidin-3-yl)-1-oxoisoindoline-5-carboxamide], the “HiBiT CK1α: Dmax” value on HiBiT tagged CK1α is 41.1%. At HiBiT tagged GSPT1 (HT-1080 cells), the “HiBiT GSPT1: Dmax” value worked out at 23.5%.

On to `O=C1CCC(N2Cc3cc(C(=O)N[C@H](c4ncc(Cl)cc4F)C4CCC4)ccc3C2=O)C(=O)N1` (stereo in doubt) [Compound 80, N-((*S)-(5-chloro-3-fluoropyridin-2-yl)(cyclobutyl)methyl)-2-(2,6-dioxopiperidin-3-yl)-1-oxoisoindoline-5-carboxamide], for which, on HiBiT tagged CK1α, the Dmax was 61.1% and the 50% degradation concentration (DC50) turned out to be 652 nM. The same compound had a Dmax on HiBiT tagged GSPT1 of 14.2%.

In the case of `O=C1CCC(N2Cc3cc(C(=O)N[C@H](c4ncc(F)cc4Cl)C4CCC4)ccc3C2=O)C(=O)N1` (stereo in doubt) [Compound 81, N-((*S)-(3-chloro-5-fluoropyridin-2-yl)(cyclobutyl)methyl)-2-(2,6-dioxopiperidin-3-yl)-1-oxoisoindoline-5-carboxamide], the Dmax at HiBiT tagged CK1α came to 62.1%; on HiBiT tagged GSPT1, 18.4%. Further, the DC50 at HiBiT tagged CK1α is 153 nM.

At HiBiT tagged CK1α, `O=C1CCC(N2Cc3cc(C(=O)N[C@H](c4ncccc4F)C4(F)CCC4)ccc3C2=O)C(=O)N1` (stereo in doubt) [Compound 88, 2-(2,6-dioxopiperidin-3-yl)-N-((*R)-(1-fluorocyclobutyl)(3-fluoropyridin-2-yl)methyl)-1-oxoisoindoline-5-carboxamide] yielded a Dmax of 55.4% and a half-maximal degradation concentration (DC50) of 394 nM. In addition, the Dmax on HiBiT tagged GSPT1 came to 14.9%.

At HiBiT tagged CK1α, `Cc1ccc(NC(=O)NCc2ccc3c(c2)CN(C2CCC(=O)NC2=O)C3=O)cc1Cl` (stereo not drawn) [CC-885, reference compound] showed a Dmax of 53.7% and a DC50 of 653 nM. In addition, at HiBiT tagged GSPT1, the greatest degradation seen (Dmax) amounted to 92.5%. On HiBiT tagged GSPT1 (HT-1080 cells), the “GSPT1 degradation (in words)” value is given as “effectively degraded GSPT1”.

With `O=C1CCC(N2Cc3cc(C(=O)NC(c4ccc(F)cc4F)C4CC4)ccc3C2=O)C(=O)N1` (stereo not drawn) [Compound 1, N-(cyclopropyl(2,4-difluorophenyl)methyl)-2-(2,6-dioxopiperidin-3-yl)-1-oxoisoindoline-5-carboxamide], the values for the Dmax at HiBiT tagged CK1α and at HiBiT tagged GSPT1 were 66.2% and 37%, respectively. At HiBiT tagged CK1α, this compound yielded a DC50 of 221 nM.

Consider `O=C1CCC(N2Cc3cc(C(=O)NC(c4ccc(Cl)cc4F)C4CC4)ccc3C2=O)C(=O)N1` (stereo not drawn) [Compound 14, N-((4-chloro-2-fluorophenyl)(cyclopropyl)methyl)-2-(2,6-dioxopiperidin-3-yl)-1-xoisoindoline-5-carboxamide], for which, on HiBiT tagged CK1α, the Dmax was 67.1% and half-maximal degradation (DC50) was put at 284 nM. On HiBiT tagged GSPT1, this compound registered a Dmax of 45.5%.

`COc1ccccc1C(NC(=O)c1ccc2c(c1)CN(C1CCC(=O)NC1=O)C2=O)C1CC1` (stereo not drawn) [Compound 15, N-(cyclopropyl(2-methoxyphenyl)methyl)-2-(2,6-dioxopiperidin-3-yl)-1-oxoisoindoline-5-carboxamide]: the Dmax amounted to 73.2% on HiBiT tagged CK1α and 24.5% at HiBiT tagged GSPT1. Moreover, the half-maximal degradation concentration (DC50) on HiBiT tagged CK1α came to 66.6 nM.

For the compound `O=C1CCC(N2Cc3cc(C(=O)NC(c4ncccc4Cl)C4CC4)ccc3C2=O)C(=O)N1` (stereo not drawn) [Compound 16, N-((3-chloropyridin-2-yl)(cyclopropyl)methyl)-2-(2,6-dioxopiperidin-3-yl)-1-oxoisoindoline-5-carboxamide], the Dmax was determined as 62.2% at HiBiT tagged CK1α and 44.9% on HiBiT tagged GSPT1. The same compound showed a half-maximal degradation concentration (DC50) at HiBiT tagged CK1α of 303 nM.

At HiBiT tagged CK1α, `O=C1CCC(N2Cc3cc(C(=O)NC(c4ccc(F)cc4Cl)C4CCC4)ccc3C2=O)C(=O)N1` (stereo not drawn) [Compound 19, N-((2-chloro-4-fluorophenyl)(cyclobutyl)methyl)-2-(2,6-dioxopiperidin-3-yl)-1-oxoisoindoline-5-carboxamide] gave a Dmax of 69.6% and a half-maximal degradation concentration (DC50) of 65.9 nM. For the same compound, the maximal degradation (Dmax) on HiBiT tagged GSPT1 turned out to be 43%.

As for `O=C1CCC(N2Cc3cc(C(=O)NC(c4c(F)cccc4F)C4CCC4)ccc3C2=O)C(=O)N1` (stereo not drawn) [Compound 22, N-(cyclobutyl(2,6-difluorophenyl)methyl)-2-(2,6-dioxopiperidin-3-yl)-1-oxoisoindoline-5-carboxamide], on HiBiT tagged CK1α, the Dmax was found to be 70.7% and half-maximal degradation (DC50) was put at 79.7 nM. This compound registered a Dmax on HiBiT tagged GSPT1 of 48.3%.

On HiBiT tagged CK1α, `O=C1CCC(N2Cc3cc(C(=O)NC(c4cccc(F)c4)C4CCC4)ccc3C2=O)C(=O)N1` (stereo not drawn) [Compound 23, N-(cyclobutyl(3-fluorophenyl)methyl)-2-(2,6-dioxopiperidin-3-yl)-1-oxoisoindoline-5-carboxamide] gave a Dmax of 61.3% and a DC50 of 198 nM. In addition, on HiBiT tagged GSPT1, the Dmax came out at 32%.

At HiBiT tagged CK1α, `O=C1CCC(N2Cc3cc(C(=O)NC(c4ccc(F)cc4)C4CCCC4)ccc3C2=O)C(=O)N1` (stereo not drawn) [Compound 37, N-(cyclopentyl(4-fluorophenyl)methyl)-2-(2,6-dioxopiperidin-3-yl)-1-oxoisoindoline-5-carboxamide] gave a Dmax of 70.8% and a DC50 of 72.7 nM. At HiBiT tagged GSPT1, this compound displayed a Dmax of 36.2%.

Consider `O=C1CCC(N2Cc3cc(C(=O)NC(c4ccc(F)c(F)c4)C4CCC4)ccc3C2=O)C(=O)N1` (stereo not drawn) [Compound 40, N-(cyclobutyl(3,4-difluorophenyl)methyl)-2-(2,6-dioxopiperidin-3-yl)-1-oxoisoindoline-5-carboxamide], for which the Dmax turned out to be 57.5% on HiBiT tagged CK1α and 30.6% on HiBiT tagged GSPT1. Besides, on HiBiT tagged CK1α, half-maximal degradation (DC50) was put at 416 nM.
